Where two headings read alike, the source gives them in different places.

Assay [1] concerns HCV replicon (strain 1b) in HUH-7 cells. In words: HCV replicon FRET assay. The note with it: Hepatitis C virus. In kind it is cell-based. An excerpt:
An HCV replicon whole cell system was established as described by Lohmann V, Korner F, Koch J, Herian U, Theilmann L, Bartenschlager R., Science 285(5424): 110-3 (1999). This system enabled us to evaluate the effects of our HCV Protease compounds on HCV RNA replication. Briefly, using the HCV strain 1b sequence described in the Lohmann paper (Assession number: AJ238799), an HCV cDNA was synthesized by Operon Technologies, Inc. (Alameda, Calif.), and the full-length replicon was then assembled in plasmid pGem9zf(+) (Promega, Madison, Wis.) using standard molecular biology techniques. The replicon consists of (i) the HCV 5′ UTR fused to the first 12 amino acids of the capsid protein, (ii) the neomycin phosphotransferase gene (neo), (iii) the IRES from encephalomyocarditis virus (EMCV), and (iv) HCV NS3 to NS5B genes and the HCV 3′ UTR. Plasmid DNAs were linearized with ScaI and RNA transcripts were synthesized in vitro using the T7 MegaScript transcription kit (Ambion, Austin, Tex.) according to manufacturer's directions. In vitro transcripts of the cDNA were transfected into the human hepatoma cell line, HUH-7. […] Resulting cell lines were characterized for positive and negative strand RNA production and protein production over time.
The HCV replicon FRET assay was developed to monitor the inhibitory effects of compounds described in the disclosure on HCV viral replication. HUH-7 cells, constitutively expressing the HCV replicon, were grown in Dulbecco's Modified Eagle Media (DMEM) (Gibco-BRL) containing 10% Fetal calf serum (FCS) (Sigma) and 1 mg/ml G418 (Gibco-BRL). Cells were seeded the night before (1.5×10^4 cells/well) in 96-well tissue-culture sterile plates. Compound and no compound controls were prepared in DMEM containing 4% FCS, 1:100 Penicillin/Streptomysin (Gibco-BRL), 1:100 L-glutamine and 5% DMSO in the dilution plate (0.5% DMSO final concentration in the assay). Compound/DMSO mixes were added to the cells and incubated for 4 days at 37° C. After 4 days, cells were first assessed for cytotoxicity using alamar Blue (Trek Diagnotstic Systems) for a CC50 reading. The toxicity of compound (CC50) was determined by adding 1/10th volume of alamar Blue to the media incubating the cells. After 4 h, the fluorescence signal from each well was read, with an excitation wavelength at 530 nm and an emission wavelength of 580 nm, using the Cytofluor Series 4000 (Perspective Biosystems). Plates were then rinsed thoroughly with Phosphate-Buffered Saline (PBS) (3 times 150 μl). The cells were lysed with 25 μl of a lysis assay reagent containing an HCV protease substrate (5× cell Luciferase cell culture lysis reagent (Promega #E153A) diluted to 1× with distilled water, NaCl added to 150 mM final, the FRET peptide substrate (as described for the enzyme assay above) diluted to 10 μM final from a 2 mM stock in 100% DMSO. The plate was then placed into the Cytofluor 4000 instrument which had been set to 340 nm excitation/490 nm emission, automatic mode for 21 cycles and the plate read in a kinetic mode. EC50 determinations were carried out as described for the IC50 determinations.
Background: In antiviral work, replicon cells carry a viral genome segment that copies itself.

Assay [2] concerns the target T1, HCV NS3/4A protease complex, BMS strain (genotype 1a) (UniProt P27958, species not given/STRAIN_BMS).
T1 construct: "DNA encoding the recombinant HCV NS3/4A protease complex (amino acids 1027 to 1711) for these strains" (said of H77 and J4L6S, not expressly of BMS); given for the H77/J4L6S constructs only
In words: FRET peptide assay to monitor HCV NS3/4A proteolytic activity (BMS strain). It counts as biochemical. The note with it: NS3/4A BMS strain, read-out: HCV Protease (IC50). An excerpt: HCV NS3 protease complexes, derived from the BMS strain, H77 strain or J4L6S strain, were generated, as described below. These purified recombinant proteins were generated for use in a homogeneous assay (see below) to provide an indication of how effective compounds of the present disclosure would be in inhibiting HCV NS3 proteolytic activity.
Serum from an HCV-infected patient was obtained from Dr. T. Wright, San Francisco Hospital. An engineered full-length cDNA (compliment deoxyribonucleic acid) template of the HCV genome (BMS strain) was constructed from DNA fragments obtained by reverse transcription-PCR(RT-PCR) of serum RNA (ribonucleic acid) and using primers selected on the basis of homology between other genotype la strains. From the determination of the entire genome sequence, a genotype la was assigned to the HCV isolate according to the classification of Simmonds et al. (See P Simmonds, K A Rose, S Graham, S W Chan, F McOmish, B C Dow, E A Follett, P L Yap and H Marsden, J. Clin. Microbiol., 31(6), 1493-1503 (1993)). […] The infectious clones, H77 (1a genotype) and J4L6S (1b genotype) were obtained from R. Purcell (NIH) and the sequences are published in Genbank (AAB67036, see Yanagi, M., Purcell, R. H., Emerson, S. U. and Bukh, J. Proc. Natl. Acad. Sci. U.S.A. 94(16), 8738-8743 (1997); AF054247, see Yanagi, M., St Claire, M., Shapiro, M., Emerson, S. U., Purcell, R. H. and Bukh, J, Virology 244 (1), 161-172. (1998)).
The H77 and J4L6S strains were used for production of recombinant NS3/4A protease complexes. DNA encoding the recombinant HCV NS3/4A protease complex (amino acids 1027 to 1711) for these strains were manipulated as described by P. Gallinari et al. (see Gallinari P, Paolini C, Brennan D, Nardi C, Steinkuhler C, De Francesco R. Biochemistry. 38(17):5620-32, (1999)). Briefly, a three-lysine solubilizing tail was added at the 3′-end of the NS4A coding region. The cysteine in the P1 position of the NS4A-NS4B cleavage site (amino acid 1711) was changed to a glycine to avoid the proteolytic cleavage of the lysine tag. Furthermore, a cysteine to serine mutation was introduced by PCR at amino acid position 1454 to prevent the autolytic cleavage in the NS3 helicase domain. The variant DNA fragment was cloned in the pET21b bacterial expression vector (Novagen) and the NS3/4A complex was expressed in Escherichia. coli strain BL21 (DE3) (Invitrogen) following the protocol described by P. Gallinari et al. (see Gallinari P, Brennan D, Nardi C, Brunetti M, Tomei L, Steinkuhler C, De Francesco R., J. Virol. 72(8):6758-69 (1998)) with modifications. Briefly, the NS3/4A protease complex expression was induced with 0.5 millimolar (mM) Isopropyl β-D-1-thiogalactopyranoside (IPTG) for 22 hours (h) at 20° C. A typical fermentation (1 Liter (L)) yielded approximately 10 grams (g) of wet cell paste. The cells were resuspended in lysis buffer (10 mL/g) consisting of 25 mM N-(2-Hydroxyethyl)piperazine-N′-(2-Ethane Sulfonic acid) (HEPES), pH 7.5, 20% glycerol, 500 mM Sodium Chloride (NaCl), 0.5% Triton X-100, 1 microgram/milliliter (“μg/mL”) lysozyme, 5 mM Magnesium Chloride (MgCl2), 1 μg/ml DnaseI, 5 mM β-Mercaptoethanol (βME), Protease inhibitor-Ethylenediamine Tetraacetic acid (EDTA) free (Roche), homogenized and incubated for 20 minutes (min) at 4° C. The homogenate was sonicated and clarified by ultra-centrifugation at 235000 g for 1 hour (h) at 4° C. Imidazole was added to the supernatant to a final concentration of 15 mM and the pH adjusted to 8.0. The crude protein extract was loaded on a Nickel-Nitrilotriacetic acid (Ni-NTA) column pre-equilibrated with buffer B (25 mM HEPES, pH 8.0, 20% glycerol, 500 mM NaCl, 0.5% Triton X-100, 15 mM imidazole, 5 mM βME). The sample was loaded at a flow rate of 1 mL/min. The column was washed with 15 column volumes of buffer C (same as buffer B except with 0.2% Triton X-100). The protein was eluted with 5 column volumes of buffer D (same as buffer C except with 200 mM Imidazole). […]

Setting [3] is: Huh-7, read-out: HCV Pro Replicon (EC50).
The mark [4] stands for this setting: activity range symbols of Table 2.
The mark [5] stands for this setting: Huh-7, HCV replicon, numeric cells of Table 2, read-out: HCV Pro Replicon (EC50).

T1 sequence (P27958 1027-1657, stated change not applied, one chain of several): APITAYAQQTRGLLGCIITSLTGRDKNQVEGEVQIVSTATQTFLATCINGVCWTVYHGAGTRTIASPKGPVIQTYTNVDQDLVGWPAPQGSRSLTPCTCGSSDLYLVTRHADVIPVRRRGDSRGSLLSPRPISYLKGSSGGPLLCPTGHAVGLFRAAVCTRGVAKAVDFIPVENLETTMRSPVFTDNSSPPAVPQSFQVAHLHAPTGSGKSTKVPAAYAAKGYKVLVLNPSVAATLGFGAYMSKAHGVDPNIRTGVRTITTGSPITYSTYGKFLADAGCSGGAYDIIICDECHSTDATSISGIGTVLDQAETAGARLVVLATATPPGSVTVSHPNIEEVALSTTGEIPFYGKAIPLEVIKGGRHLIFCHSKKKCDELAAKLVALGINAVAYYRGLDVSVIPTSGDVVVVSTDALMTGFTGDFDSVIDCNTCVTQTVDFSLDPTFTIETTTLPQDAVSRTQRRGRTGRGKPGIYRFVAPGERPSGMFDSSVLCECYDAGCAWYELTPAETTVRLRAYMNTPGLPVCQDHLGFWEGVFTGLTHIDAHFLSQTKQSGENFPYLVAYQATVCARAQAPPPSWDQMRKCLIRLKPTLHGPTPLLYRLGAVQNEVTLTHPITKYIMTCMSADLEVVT

For orientation: EC50 means the midpoint of the concentration-response curve. For orientation: IC50 means the point on the concentration scale where inhibition reaches its midpoint. As to `C=C[C@@H]1C[C@]1(NC(=O)[C@@H]1C[C@@](OC)(c2ccc(-c3ccccc3)cc2)CN1C(=O)[C@@H](NC(=O)OC(C)(C)C(F)(F)F)C(C)(C)C)C(=O)NS(=O)(=O)C1CC1` [Cmpd 200, {(S)-1-[(2S,4R)-4-Biphenyl-4-yl-2-((S)-(1R,2S)-1-cyclopropanesulfonylaminocarbonyl-2-vinyl-cyclopropylcarbamoyl)-4-methoxy-pyrrolidine-1-carbonyl]-2,2-dimethyl-propyl}-carbamic acid 2,2,2-trifluoro-1,1-dimethyl-ethyl ester], the EC50 in assay [1] (setting [3]) was in the range of 1 to 50 nM. In addition, the IC50 in assay [2] (setting [4]) lay within 1 to 50 nM.

For `C=C[C@@H]1C[C@]1(NC(=O)[C@@H]1C[C@@](OC)(c2ccc(-c3ccccc3)cc2)CN1C(=O)[C@@H](NC(=O)OC(C)(C)C)C(C)(C)C)C(=O)NS(=O)(=O)C1CC1` [Cmpd 106, tert-butyl (S)-1-((2S,4R)-4-(biphenyl-4-yl)-2-((1R,2S)-1-(cyclopropylsulfonylcarbamoyl)-2-vinylcyclopropylcarbamoyl)-4-methoxypyrrolidin-1-yl)-3,3-dimethyl-1-oxobutan-2-ylcarbamate], the EC50 in assay [1] (setting [5]) amounted to 11 nM. Also, in assay [2] (numeric cells of Table 2), the IC50 turned out to be 1 nM.

For the compound `C=C[C@@H]1C[C@]1(NC(=O)[C@@H]1C[C@@](OC)(c2ccc(-c3ccccc3)cc2)CN1C(=O)[C@H](Cc1ccc(C(C)(C)C)cc1)NC(=O)OC(C)(C)C)C(=O)NS(=O)(=O)C1CC1` [Cmpd 211], the IC50 in assay [2] (numeric cells of Table 2) came out at 1600 nM.

Consider `C=C[C@@H]1C[C@]1(NC(=O)[C@@H]1C[C@@](OC)(c2ccc(-c3ccccc3)cc2)CN1C(=O)[C@@H](NC(=O)NC(C)(C)C)C(C)(C)C)C(=O)NS(=O)(=O)C1CC1` [Cmpd 206, (2S,4R)-4-Biphenyl-4-yl-1-[(S)-2-(3-tert-butyl-ureido)-3,3-dimethyl-butyryl]-4-methoxy-pyrrolidine-2-carboxylic acid ((1R,2S)-1-cyclopropanesulfonylaminocarbonyl-2-vinyl-cyclopropyl)-amide], for which the EC50 in assay [1] (setting [3]) lay in the range of 1 to 50 nM. Moreover, the IC50 in assay [2] (setting [4]) fell in the range of 1 to 50 nM.

Regarding `COC1(c2ccc(-c3ccccc3)cc2)CC(C(=O)NC2(C(=O)NS(=O)(=O)C3CC3)CC2C(F)F)N(C(=O)C(NC(=O)OC(C)(C)C)C(C)(C)C)C1` (centres unmarked) [Cmpd 109], in assay [1] (setting [3]), the EC50 lay within 50 to 500 nM. In assay [2] (setting [4]), the half-maximal inhibitory concentration (IC50) is 1 to 50 nM.

For the compound `C=C[C@@H]1C[C@]1(NC(=O)[C@@H]1C[C@@](OC)(c2ccc(-c3ccccc3)cc2)CN1C(=O)[C@H](Nc1cccc(OC)c1)C(C)(C)C)C(=O)NS(=O)(=O)C1CC1` [Cmpd 208, (2S,4R)-4-Biphenyl-4-yl-4-methoxy-1-[(R)-2-(3-methoxy-phenylamino)-3,3-dimethyl-butyryl]-pyrrolidine-2-carboxylic acid ((1R,2S)-1-cyclopropanesulfonylaminocarbonyl-2-vinyl-cyclopropyl)-amide], the half-maximal effective concentration (EC50) in assay [1] (setting [5]) stood at 1300 nM. Besides, the half-maximal inhibitory concentration (IC50) in assay [2] (numeric cells of Table 2) stood at 315 nM.

For the compound `C=C[C@@H]1C[C@]1(NC(=O)[C@@H]1C[C@@](OC)(c2ccc(-c3ccccc3)cc2)CN1C(=O)[C@@H](NC(=O)OC12CC3CC(CC(C3)C1)C2)C(C)(C)C)C(=O)NS(=O)(=O)C1CC1` [Cmpd 204, {(S)-1-[(2S,4R)-4-Biphenyl-4-yl-2-((S)-(1R,2S)-1-cyclopropanesulfonylaminocarbonyl-2-vinyl-cyclopropylcarbamoyl)-4-methoxy-pyrrolidine-1-carbonyl]-2,2-dimethyl-propyl}-carbamic acid adamantan-1-yl ester], the EC50 in assay [1] (setting [3]) was in the range of 1 to 50 nM. Also, the IC50 in assay [2] (setting [4]) is 1 to 50 nM.

For `C=C[C@@H]1C[C@]1(NC(=O)[C@@H]1C[C@@](OCc2ccccc2)(c2ccc(-c3ccccc3)cc2)CN1C(=O)[C@@H](NC(=O)OC(C)(C)C)C(C)(C)C)C(=O)NS(=O)(=O)C1CC1` [Cmpd 108], the half-maximal effective concentration (EC50) in assay [1] (setting [3]) was 1 to 50 nM. In addition, the IC50 in assay [2] (setting [4]) fell in the range of 1 to 50 nM.

Turning to `C=C[C@@H]1C[C@]1(NC(=O)[C@@H]1C[C@@](OC)(c2ccc(-c3ccccc3)cc2)CN1C(=O)[C@@H](Nc1ccc(F)c(F)c1)C(C)(C)C)C(=O)NS(=O)(=O)C1CC1` [Cmpd 209, (2S,4R)-4-Biphenyl-4-yl-1-[(S)-2-(3,4-difluoro-phenylamino)-3,3-dimethyl-butyryl]-4-methoxy-pyrrolidine-2-carboxylic acid ((1R,2 S)-1-cyclopropanesulfonylaminocarbonyl-2-vinyl-cyclopropyl)-amide], in assay [1] (setting [3]), the EC50 was in the range of 1 to 50 nM. Besides, the 50% inhibitory concentration (IC50) in assay [2] (setting [4]) fell in the range of 1 to 50 nM.

These data come from patent publication US7888464B2, “Hepatitis C virus inhibitors” (Bristol-Myers Squibb Company, priority 2006, dated 2011).
